In ChEMBL document CHEMBL3352246, “Design and synthesis of novel 5-(3,4,5-trimethoxybenzoyl)-4-aminopyrimidine derivatives as potent and selective phosphodiesterase 5 inhibitors: scaffold hopping using a pseudo-ring by intramolecular hydrogen bond formation” (Bioorg Med Chem Lett, 2014):

Legend:
[1] = target: cGMP-specific 3',5'-cyclic phosphodiesterase (Canis lupus familiaris, UniProt O77746); experiment: Inhibition of canine lung PDE5 using [3H]cGMP substrate by radiolabeled nucleotide method
Corpus cavernosum = experiment: Relaxant activity in rabbit corpus cavernosum assessed as reduction in phenyepinephrine-induced contraction; format: functional, tissue-based; settings: Oryctolagus cuniculus
[2] = Selectivity index, ratio of IC50 for light activated bovine retina PDE6 to IC50 for canine lung PDE5
[3] = Inhibition of light activated bovine retina PDE6 using [3H]cGMP substrate by radiolabeled nucleotide method; set-up: species or system Bos taurus
[4] = target: cGMP-specific 3',5'-cyclic phosphodiesterase (Homo sapiens, UniProt O76074); experiment: Inhibition of PDE5 (unknown origin)
[5] = Selectivity index, ratio of IC50 for light activated bovine retina PDE6 to IC50 for PDE5 (unknown origin)
[6] = Selectivity index, ratio of IC50 for trypsin activated bovine retina PDE6 to IC50 for PDE5 (unknown origin)

Structure (SMILES)	IC50 [1] [nM]	EC50 (Corpus cavernosum) [nM]	Ratio IC50 [2]	IC50 [3] [nM]	IC50 [4] [nM]	Ratio IC50 [5]	Ratio IC50 [6]
COc1ccc(CNc2nc(N3CCc4ccccc4C3)ncc2C(=O)c2cc(OC)c(OC)c(OC)c2)cc1Cl	0.053	> 100	3200				
COc1ccc(CNc2cc(OCc3ccccn3)ccc2C(=O)c2cc(OC)c(OC)c(OC)c2)cc1Cl	0.66	> 100	18000				
COC(=O)c1ncc2cc(OCc3ccccn3)ccc2c1-c1cc(OC)c(OC)c(OC)c1	34			> 10000			
COc1ccc(CNc2nc(N(C)CCO)ncc2C(=O)c2cc(OC)c(OC)c(OC)c2)cc1Cl	2.7	29	> 3700				
COC(=O)c1nc(N2CCC(O)CC2)c2cc(OCc3ccccc3)ccc2c1-c1cc(OC)c(OC)c(OC)c1	2			590			
COc1ccc(CN(C)c2nc(OCc3ccccn3)ncc2C(=O)c2cc(OC)c(OC)c(OC)c2)cc1Cl	5						
COc1ccc(CNc2nc(OCc3ncccn3)ncc2C(=O)c2cc(OC)c(OC)c(OC)c2)cc1Cl	3.4	3.1	560				
COc1ccc(CNc2nc(N3CCCCC3)ncc2C(=O)c2cc(OC)c(OC)c(OC)c2)cc1Cl	0.74		2000				
COc1ccc(CNc2nc(OCc3ccccc3)ncc2C(=O)c2cc(OC)c(OC)c(OC)c2)cc1Cl	0.38	> 100	1600				
COc1ccc(COc2nc(OCc3ccccn3)ncc2C(=O)c2cc(OC)c(OC)c(OC)c2)cc1Cl	1.5						
COCCOc1ncc(C(=O)c2cc(OC)c(OC)c(OC)c2)c(NCc2ccc(OC)c(Cl)c2)n1	1.7	10	2200				
COC(=O)c1nc(NCc2ccc(OC)c(Cl)c2)c2cc(OCc3ccccc3)ccc2c1-c1cc(OC)c(OC)c(OC)c1	3.5			> 10000			
COc1ccc(CNc2nc(OCc3ccccn3)ncc2C(=O)c2cc(OC)c(OC)c(OC)c2)cc1Cl	0.13	53	2400				
COC(=O)c1c(-c2cc(OC)c(OC)c(OC)c2)c2ccc(OCc3ccccn3)cc2c(=O)n1-c1ccc(N)cc1					1	650	32
COc1ccc(CNc2nc(N3CCOCC3)ncc2C(=O)c2cc(OC)c(OC)c(OC)c2)cc1Cl	1.5	> 100	6700				
COc1ccc(CNc2nc(N3CCOC(CO)C3)ncc2C(=O)c2cc(OC)c(OC)c(OC)c2)cc1Cl (stereo not given)	1.8	11	2800				
